Test results: EP4603105A1, “PHARMACEUTICAL COMPOSITION CONTAINING CYCLIC COMPOUND HAVING SELECTIVE KRAS INHIBITORY EFFECT AGAINST HRAS AND NRAS” (CHUGAI SEIYAKU KABUSHIKI KAISHA, priority 2022, dated 2024)

Tests used:
[1] = target: HRAS wild-type protein (Homo sapiens, UniProt P01112); assay: Binding to HRAS by surface plasmon resonance (SPR), KD and KD ratio to KRAS; conditions: ratio of KD with respect to HRAS wild-type protein to KD with respect to KRAS
How it was run: (§1)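 Single-cycle kinetics on GDP-loaded biotin-Avi RAS captured to ~100–300 RU; 75 s ascending injections, 100 µL/min, 30°C. HBS pH 7.4 + 10 mM MgCl2/10 µM GDP/4% DMSO. 1:1 fit, KD.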

[2] = tested on: human lung cancer strain NCI-H441; assay: NCI-H441 cell proliferation inhibitory activity (CellTiter-Glo, 4 days); format: cell-based; conditions: 50% proliferation inhibitory concentration, four days, read-out: NCl-H441 IC50
How it was run: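 Proliferation was scored by […] measured after the reagent was added to cultures kept at 37°C in 5% carbon dioxide.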

[3] = target: GDP-bound NRAS wild-type protein (Homo sapiens, UniProt P01111); assay: Binding to NRAS by surface plasmon resonance (SPR), KD and KD ratio to KRAS; conditions: ratio of KD with respect to GDP-bound NRAS wild-type protein to KD with respect to KRAS
Sequence of GDP-bound NRAS wild-type protein (P01111 whole entry): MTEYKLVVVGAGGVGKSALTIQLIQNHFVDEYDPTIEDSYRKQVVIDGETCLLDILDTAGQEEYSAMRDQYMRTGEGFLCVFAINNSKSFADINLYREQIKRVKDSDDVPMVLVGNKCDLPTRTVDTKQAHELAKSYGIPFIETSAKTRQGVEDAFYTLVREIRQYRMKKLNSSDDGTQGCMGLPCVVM
How it was run: as §1

[4] = target: GDP-bound KRAS wild-type protein (Homo sapiens, UniProt P01116); assay: Binding to KRAS by surface plasmon resonance (SPR), dissociation constant KD; conditions: Single Cycle Kinetics, 1:1 binding model
Sequence of GDP-bound KRAS wild-type protein (P01116 1-188 isoform P01116-2): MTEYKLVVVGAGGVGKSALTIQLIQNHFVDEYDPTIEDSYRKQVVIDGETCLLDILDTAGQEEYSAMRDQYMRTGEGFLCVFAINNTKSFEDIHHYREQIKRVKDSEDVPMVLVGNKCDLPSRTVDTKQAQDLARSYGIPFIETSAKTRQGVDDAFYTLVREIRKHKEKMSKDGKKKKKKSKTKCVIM
How it was run: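 Running buffer contained 10 µM GDP and 10 mM MgCl2 to keep RAS in the GDP state, with 4% DMSO at pH 7.4. Compounds were flowed at 100 µL/min in 75 s steps of rising concentration over captured biotin-Avi RAS at 30°C. Sensorgrams were fitted 1:1 for KD.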

Sequence of HRAS wild-type protein (P01112 whole entry): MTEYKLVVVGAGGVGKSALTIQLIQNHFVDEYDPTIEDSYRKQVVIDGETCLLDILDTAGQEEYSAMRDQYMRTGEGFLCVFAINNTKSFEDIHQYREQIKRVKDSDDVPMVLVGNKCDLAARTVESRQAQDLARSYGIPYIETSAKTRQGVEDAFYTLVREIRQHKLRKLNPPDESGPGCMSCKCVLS

Structure (SMILES) | HRAS /KRAS [1] | IC50 [2] | NRAS /KRAS [3] | Kd [4]
CC[C@H](C)[C@@H]1NC(=O)[C@H](CC)N(C)C(=O)C[C@@H](C(=O)N(C)C)N(C)C(=O)[C@H](C2CCCC2)N(C)C(=O)C2(CCC2)NC(=O)[C@@H]2C[C@H](C)CN2C(=O)[C@H](CCc2cc(F)c(C(F)(F)F)c(F)c2)NC(=O)CN(C)C(=O)[C@H](CC2CCC(F)(F)CC2)N2CC/C=C\C[C@@H](C2=O)N(C)C(=O)CN(C)C1=O [PP1457] | A (a compound having 10 or more and less than 20 is denoted as A) | 30.4 nM | A (a compound having 10 or more and less than 20 is denoted as A) | 0.15 nM
CCO[C@@H]1C[C@H]2C(=O)NC3(CCC3)C(=O)N(C)[C@@H](C3CCCC3)C(=O)N(C)[C@H](C(=O)N(C)C)CC(=O)N(C)[C@@H](CC3CCCC3)C(=O)N[C@@H]([C@@H](C)CC)C(=O)N(C)CC(=O)N(C)[C@H]3C/C=C\CCN(C3=O)[C@@H](CC3CCC(F)(F)CC3)C(=O)N(C)CC(=O)N[C@@H](CCc3cc(F)c(C(F)(F)F)c(F)c3)C(=O)N2C1 [PP1458] | A (a compound having 10 or more and less than 20 is denoted as A) | 18.2 nM | A (a compound having 10 or more and less than 20 is denoted as A) | 0.15 nM
CCO[C@@H]1C[C@H]2C(=O)NC3(CCCC3)C(=O)N(C)[C@@H](C3CCCC3)C(=O)N(C)[C@H](C(=O)N(C)C)CC(=O)N(C)[C@@H](CC(C)C)C(=O)N[C@@H]([C@@H](C)CC)C(=O)N(C)CC(=O)N(C)[C@H]3C/C=C\CCN(C3=O)[C@@H](CC3CCC(F)(F)CC3)C(=O)N(C)CC(=O)N[C@@H](CCc3cc(F)c(C(F)(F)F)c(F)c3)C(=O)N2C1 [PP1459] | A (a compound having 10 or more and less than 20 is denoted as A) | 38.6 nM | A (a compound having 10 or more and less than 20 is denoted as A) | 0.2 nM
CCO[C@@H]1C[C@H]2C(=O)NC3(CCC3)C(=O)N(C)[C@@H](C3CCCC3)C(=O)N(C)[C@H](C(=O)N(C)C)CC(=O)N(C)[C@@H](CC(C)(C)C)C(=O)N[C@@H]([C@@H](C)CC)C(=O)N(C)CC(=O)N(C)[C@H]3C/C=C\CCN(C3=O)[C@@H](CC3CCC(F)(F)CC3)C(=O)N(C)CC(=O)N[C@@H](CCc3cc(F)c(C(F)(F)F)c(F)c3)C(=O)N2C1 [PP1460] | A (a compound having 10 or more and less than 20 is denoted as A) | 32.9 nM | A (a compound having 10 or more and less than 20 is denoted as A) | 0.23 nM
CC[C@H](C)[C@@H]1NC(=O)[C@H](CC)N(C)C(=O)C[C@@H](C(=O)N(C)C)N(C)C(=O)[C@H](C2CCCC2)N(C)C(=O)C2(CCC2)NC(=O)[C@@H]2CCCN2C(=O)[C@H](CCc2cc(F)c(C(F)(F)F)c(F)c2)NC(=O)CN(C)C(=O)[C@H](CC2CCC(F)(F)CC2)N2CC/C=C\C[C@@H](C2=O)N(C)C(=O)CN(C)C1=O [PP1461] | A (a compound having 10 or more and less than 20 is denoted as A) | 121 nM | A (a compound having 10 or more and less than 20 is denoted as A) | 0.27 nM
CC[C@H](C)[C@@H]1NC(=O)[C@H](CC)N(C)C(=O)C[C@@H](C(=O)N(C)C)N(C)C(=O)[C@H](C2CCCC2)N(C)C(=O)C2(CCC2)NC(=O)[C@@H]2CC(F)(F)CN2C(=O)[C@H](CCc2cc(F)c(C(F)(F)F)c(F)c2)NC(=O)CN(C)C(=O)[C@H](CC2CCCCC2)N2CC/C=C\C[C@@H](C2=O)N(C)C(=O)CN(C)C1=O [PP1462] | A (a compound having 10 or more and less than 20 is denoted as A) | 27.5 nM | A (a compound having 10 or more and less than 20 is denoted as A) | 0.12 nM
CCO[C@@H]1C[C@H]2C(=O)NC3(CCC3)C(=O)N(C)[C@@H](C3CCCC3)C(=O)N(C)[C@H](C(=O)N(C)C)CC(=O)N(C)[C@@H](CSC)C(=O)N[C@@H]([C@@H](C)CC)C(=O)N(C)CC(=O)N(C)[C@H]3C/C=C\CCN(C3=O)[C@@H](CC3CCCCC3)C(=O)N(C)CC(=O)N[C@@H](CCc3cc(F)c(C(F)(F)F)c(F)c3)C(=O)N2C1 [PP1463] | A (a compound having 10 or more and less than 20 is denoted as A) | 44.5 nM | A (a compound having 10 or more and less than 20 is denoted as A) | 0.13 nM
CCC[C@H]1C(=O)N[C@@H]([C@@H](C)CC)C(=O)N(C)CC(=O)N(C)[C@H]2C/C=C\CCN(C2=O)[C@@H](CC2CCCCC2)C(=O)N(C)CC(=O)N[C@@H](CCc2cc(F)c(C(F)(F)F)c(F)c2)C(=O)N2C[C@H](OCC)C[C@H]2C(=O)NC2(CCC2)C(=O)N(C)[C@@H](C2CCCC2)C(=O)N(C)[C@H](C(=O)N(C)C)CC(=O)N1C [PP1464] | A (a compound having 10 or more and less than 20 is denoted as A) | 32.3 nM | A (a compound having 10 or more and less than 20 is denoted as A) | 0.15 nM
CC[C@H](C)[C@@H]1NC(=O)[C@H](CC)N(C)C(=O)C[C@@H](C(=O)N(C)C)N(C)C(=O)[C@H](C2CCCC2)N(C)C(=O)C2(CCC2)NC(=O)[C@@H]2C[C@@H](C(F)(F)F)CN2C(=O)[C@H](CCc2cc(F)c(C(F)(F)F)c(F)c2)NC(=O)CN(C)C(=O)[C@H](CC2CCCCC2)N2CC/C=C\C[C@@H](C2=O)N(C)C(=O)CN(C)C1=O [PP1465] | A (a compound having 10 or more and less than 20 is denoted as A) | 34.1 nM | A (a compound having 10 or more and less than 20 is denoted as A) | 0.36 nM
CCO[C@@H]1C[C@H]2C(=O)NC3(CCC3)C(=O)N(C)[C@@H](C3CCCC3)C(=O)N(C)[C@H](C(=O)N(C)C)CC(=O)N(C)[C@@H](CC(C)C)C(=O)N[C@@H]([C@@H](C)CC)C(=O)N(C)CC(=O)N(C)[C@H]3C/C=C\CCN(C3=O)[C@@H](CC3CCCCC3)C(=O)N(C)CC(=O)N[C@@H](CCc3cc(F)c(C(F)(F)F)c(F)c3)C(=O)N2C1 [PP1467] | A (a compound having 10 or more and less than 20 is denoted as A) | 11.2 nM | A (a compound having 10 or more and less than 20 is denoted as A) | 0.12 nM
CC[C@H](C)[C@@H]1NC(=O)[C@H](CC)N(C)C(=O)C[C@@H](C(=O)N(C)C)N(C)C(=O)[C@H](C2CCCC2)N(C)C(=O)C2(CCC2)NC(=O)[C@@H]2C[C@H](C)CN2C(=O)[C@H](CCc2cc(F)c(C(F)(F)F)c(F)c2)NC(=O)CN(C)C(=O)[C@H](CC2CCCCC2)N2CC/C=C\C[C@@H](C2=O)N(C)C(=O)CN(C)C1=O [PP1471] | A (a compound having 10 or more and less than 20 is denoted as A) | 48.2 nM | A (a compound having 10 or more and less than 20 is denoted as A) | 0.25 nM
CCO[C@@H]1C[C@H]2C(=O)NC3(CCCC3)C(=O)N(C)[C@@H](C3CCCC3)C(=O)N(C)[C@H](C(=O)N(C)C)CC(=O)N(C)[C@@H](CC(C)C)C(=O)N[C@@H]([C@@H](C)CC)C(=O)N(C)CC(=O)N(C)[C@H]3C/C=C\CCN(C3=O)[C@@H](CC3CCCCC3)C(=O)N(C)CC(=O)N[C@@H](CCc3cc(F)c(C(F)(F)F)c(F)c3)C(=O)N2C1 [PP1473] | A (a compound having 10 or more and less than 20 is denoted as A) | 36.6 nM | A (a compound having 10 or more and less than 20 is denoted as A) | 0.19 nM
CCO[C@@H]1C[C@H]2C(=O)NC3(CCC3)C(=O)N(C)[C@@H](C3CCCC3)C(=O)N(C)[C@H](C(=O)N(C)C)CC(=O)N(C)[C@@H](CC(C)(C)C)C(=O)N[C@@H]([C@@H](C)CC)C(=O)N(C)CC(=O)N(C)[C@H]3C/C=C\CCN(C3=O)[C@@H](CC3CCCCC3)C(=O)N(C)CC(=O)N[C@@H](CCc3cc(F)c(C(F)(F)F)c(F)c3)C(=O)N2C1 [PP1474] | A (a compound having 10 or more and less than 20 is denoted as A) | 48.2 nM | A (a compound having 10 or more and less than 20 is denoted as A) | 0.23 nM
CC[C@H](C)[C@@H]1NC(=O)[C@H](CC)N(C)C(=O)C[C@@H](C(=O)N(C)C)N(C)C(=O)[C@H](C2CCCC2)N(C)C(=O)C2(CCC2)NC(=O)[C@@H]2CCCN2C(=O)[C@H](CCc2cc(F)c(C(F)(F)F)c(F)c2)NC(=O)CN(C)C(=O)[C@H](CC2CCCCC2)N2CC/C=C\C[C@@H](C2=O)N(C)C(=O)CN(C)C1=O [PP1475] | A (a compound having 10 or more and less than 20 is denoted as A) | 48.9 nM | A (a compound having 10 or more and less than 20 is denoted as A) | 0.55 nM
CCO[C@@H]1C[C@H]2C(=O)NC3(CCC3)C(=O)N(C)[C@@H](C3CCCC3)C(=O)N(C)[C@H](C(=O)N(C)C)CC(=O)N(C)[C@@H](CC3CC3)C(=O)N[C@@H]([C@@H](C)CC)C(=O)N(C)CC(=O)N(C)[C@H]3C/C=C\CCN(C3=O)[C@@H](Cc3ccc(F)cc3C)C(=O)N(C)CC(=O)N[C@@H](CCc3ccc(Cl)c(Cl)c3)C(=O)N2C1 [PP1476] | B (a compound having 3 or more and less than 10 is denoted as B) | 216 nM | A (a compound having 10 or more and less than 20 is denoted as A) | 1 nM
CCO[C@@H]1C[C@H]2C(=O)NC3(CCC3)C(=O)N(C)[C@@H](C3CCCC3)C(=O)N(C)[C@H](C(=O)N(C)C)CC(=O)N(C)[C@@H](CC3CC3)C(=O)N[C@@H]([C@@H](C)CC)C(=O)N(C)CC(=O)N(C)[C@H]3C/C=C\CCN(C3=O)[C@@H](Cc3ccc(F)cc3)C(=O)N(C)CC(=O)N[C@@H](CCc3cc(F)c(Cl)c(F)c3)C(=O)N2C1 [PP1479] | B (a compound having 3 or more and less than 10 is denoted as B) | 140 nM | A (a compound having 10 or more and less than 20 is denoted as A) | 0.49 nM
